From patent US20060069132A1, “Azolecarboxamide herbicides” (priority 2004, published 2006)

Assays:
giant foxtail = assay: Test B pre-/postemergence herbicide test; format: in vivo, Setaria faberi
How it was run: (§1)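 Flooded paddy rice and barnyardgrass were treated at the 2-leaf stage; upland plantings received compound either on sown seed or on 1- to 4-leaf seedlings. All were kept 13–15 days in a greenhouse and scored visually, 0–100, relative to untreated plants.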

pigweed = assay: Test B pre-/postemergence herbicide test; format: in vivo, Amaranthus retroflexus
How it was run: as §1

Surinam grass = assay: Test C pre-/postemergence herbicide test; format: in vivo, Urochloa decumbens
How it was run: (§2)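 Greenhouse-grown plants were evaluated visually 12 to 14 days after treatment, with 100 meaning complete control and 0 no effect. Application was preemergence, or postemergence at 2 to 18 cm.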

large crabgrass = assay: Test C pre-/postemergence herbicide test; format: in vivo, Digitaria sanguinalis
How it was run: as §2

goosegrass = assay: Test C pre-/postemergence herbicide test; format: in vivo, Eleusine indica
How it was run: as §2

kochia = assay: Test C pre-/postemergence herbicide test; format: in vivo, Kochia scoparia
How it was run: as §2

lambsquarters = assay: Test C pre-/postemergence herbicide test; format: in vivo, Chenopodium album
How it was run: as §2

common ragweed = assay: Test C pre-/postemergence herbicide test; format: in vivo, Ambrosia elatior; design: key to Plant response rating, Ragweed: 0 = no effect, 100 = complete control
How it was run: as §2

[1] = test system: smallflower umbrella sedge; assay: Test C flooded paddy test; format: in vivo, Cyperus difformis; details: for Plant response rating, Sedge, Umbrella: visual rating after 12 to 14 days
[2] = 125 g ai/ha, 0 = no effect, 100 = complete control, preemergence
[3] = 500 g ai/ha, visual rating, 0 = no effect, 100 = complete control, preemergence
[4] = postemergence, 125 g ai/ha, visual rating, scale 0 (no effect) to 100 (complete control)
[5] = postemergence, 500 g ai/ha, scale 0 to 100, 0 is no effect, 100 is complete control
[6] = 62 g ai/ha, preemergence, scale 0 to 100
[7] = 250 g ai/ha, scale 0-100, preemergence
[8] = 500 g ai/ha, scale 0 to 100 (0 no effect, 100 complete control), visual, 12 to 14 days, preemergence
[9] = 125 g ai/ha, scale 0 (no effect) to 100 (complete control), visual, 12 to 14 days, preemergence
[10] = 250 g ai/ha, scale of 0 to 100, 0 is no effect, 100 is complete control
[11] = 500 g ai/ha, scale 0 to 100 (0 no effect, 100 complete control)
[12] = Postemergence, 500 g ai/ha, visual rating after 13 to 15 days, scale 0 (no effect) to 100 (complete control)
[13] = Preemergence, 500 g ai/ha, scale 0 to 100
[14] = preemergence, 125 g ai/ha, 0 to 100 scale, 0 is no effect, 100 is complete control
[15] = 250 g ai/ha, scale 0 to 100 (0 no effect, 100 complete control), visual, 12 to 14 days, preemergence
[16] = Postemergence, 500 g ai/ha, scale 0 to 100
[17] = Postemergence, 250 g ai/ha, scale 0 to 100, 0 no effect, 100 complete control
[18] = Preemergence, 500 g ai/ha, scale 0 to 100, 0 no effect, 100 complete control
[19] = postemergence, 125 g ai/ha, scale 0 to 100
[20] = postemergence, 62 g ai/ha, scale 0 to 100
[21] = 125 g ai/ha, scale 0-100, preemergence
[22] = Postemergence, 125 g ai/ha, scale 0 to 100, 0 no effect, 100 complete control
[23] = 62 g ai/ha, scale 0 to 100 (0 no effect, 100 complete control)
[24] = 125 g ai/ha, scale of 0 to 100, 0 is no effect, 100 is complete control

In the case of `CCNC(=O)c1ccc(F)c(NC(=O)C2CC(C(C)(C)C)=NN2CC)c1` (racemic) [Compound 269], the “Foxtail, Giant plant response rating (0 to 100 scale)” value (giant foxtail; [2]) is reported as 80, the “Plant response rating, Foxtail, Giant” value (giant foxtail; [3]) is reported as 100 and the “Foxtail, Giant plant response rating” value (giant foxtail; [4]) is reported as 30. For the same compound, the “Foxtail, Giant plant response rating” value (giant foxtail; [5]) was 30, the “Pigweed plant response rating (0 to 100 scale)” value (pigweed; [2]) was 100 and the “Plant response rating, Pigweed” value (pigweed; [3]) was 100. For the same compound, the “Pigweed plant response rating” value (pigweed; [4]) was 60, the “Pigweed plant response rating” value (pigweed; [5]) was 60 and the “Plant response rating, Surinam Grass” value (Surinam grass; [6]) was 5. For the same compound, the “Plant response rating, Surinam Grass” value (Surinam grass; [7]) was 85, the “Plant response rating, Surinam Grass” value (Surinam grass; [8]) was 95 and the “Plant response rating, Crabgrass, Large” value (large crabgrass; [6]) was 95. The “Plant response rating, Crabgrass, Large” value (large crabgrass; [9]) was 100, the “Plant response rating, Crabgrass, Large” value (large crabgrass; [7]) was 100 and the “Plant response rating, Crabgrass, Large” value (large crabgrass; [8]) was 100. For the same compound, the “Plant response rating, Goosegrass” value (goosegrass; [6]) was 70, the “Plant response rating, Goosegrass” value (goosegrass; [9]) was 85 and the “Plant response rating, Goosegrass” value (goosegrass; [7]) was 95. The “Plant response rating, Goosegrass” value (goosegrass; [8]) was 100, the “Plant response rating, Kochia” value (kochia; [6]) was 70 and the “Plant response rating, Kochia” value (kochia; [9]) was 100. For the same compound, the “Plant response rating, Kochia” value (kochia; [7]) was 100, the “Plant response rating, Kochia” value (kochia; [8]) was 100 and the “Plant response rating, Lambsquarters” value (lambsquarters; [6]) was 95. The “Plant response rating, Lambsquarters” value (lambsquarters; [9]) was 100, the “Plant response rating, Lambsquarters” value (lambsquarters; [7]) was 100 and the “Plant response rating, Lambsquarters” value (lambsquarters; [8]) was 100. The “Plant response rating, Ragweed” value (common ragweed; [6]) was 5, the “Plant response rating, Ragweed” value (common ragweed; [7]) was 90 and the “Plant response rating, Ragweed” value (common ragweed; [8]) was 90. For the same compound, the “Sedge, Umbrella plant response rating” value ([1]; 62 g ai/ha, scale 0 to 100) was 45, the “Sedge, Umbrella plant response rating” value ([1]; 125 g ai/ha, scale 0 to 100 (0 no effect, 100 complete control)) was 80 and the “Sedge, Umbrella plant response rating” value [1, 10] was 80. For the same compound, the “Plant response rating, Sedge, Umbrella” value [1, 11] was 85.
`C=Cn1nc(C(C)(C)C)cc1C(=O)Nc1cccc(C(=O)N(CC)CC)c1` [Compound 34] was tested, and the “Foxtail, Giant plant response rating” value (giant foxtail; Postemergence, 125 g ai/ha, scale 0 (no effect) to 100 (complete control)) was 30, the “Plant response rating, Foxtail, Giant” value (giant foxtail; [12]) was 30 and the “Foxtail, Giant plant response rating” value (giant foxtail; [13]) was 90. The “Plant response rating, Foxtail, Giant” value (giant foxtail; [14]) was 30, the “Plant response rating, Pigweed” value (pigweed; [12]) was 90 and the “Pigweed plant response rating” value (pigweed; [13]) was 100. The “Plant response rating, Pigweed” value (pigweed; [14]) was 100, the “Plant response rating (0 = no effect, 100 = complete control), Surinam Grass” value (Surinam grass; 62 g ai/ha, preemergence) was 10 and the “Plant response rating, Surinam Grass” value (Surinam grass; [15]) was 60. For the same compound, the “Surinam Grass plant response rating” value (Surinam grass; [16]) was 70, the “Plant response rating, Surinam Grass” value (Surinam grass; [17]) was 50 and the “Surinam Grass plant response rating” value (Surinam grass; [18]) was 70. For the same compound, the “Plant response rating, Surinam Grass” value (Surinam grass; [19]) was 30, the “Plant response rating, Surinam Grass” value (Surinam grass; [20]) was 20 and the “Plant response rating (0 = no effect, 100 = complete control), Crabgrass, Large” value (large crabgrass; 62 g ai/ha, preemergence) was 80. For the same compound, the “Plant response rating, Crabgrass, Large” value (large crabgrass; [21]) was 100, the “Plant response rating, Crabgrass, Large” value (large crabgrass; [15]) was 100 and the “Crabgrass, Large plant response rating” value (large crabgrass; [16]) was 60. For the same compound, the “Plant response rating, Crabgrass, Large” value (large crabgrass; [22]) was 40, the “Plant response rating, Crabgrass, Large” value (large crabgrass; [17]) was 60 and the “Crabgrass, Large plant response rating” value (large crabgrass; [18]) was 100. The “Plant response rating, Crabgrass, Large” value (large crabgrass; [20]) was 20, the “Plant response rating (0 = no effect, 100 = complete control), Goosegrass” value (goosegrass; 62 g ai/ha, preemergence) was 20 and the “Plant response rating, Goosegrass” value (goosegrass; [21]) was 80. The “Plant response rating, Goosegrass” value (goosegrass; [15]) was 100, the “Goosegrass plant response rating” value (goosegrass; [16]) was 40 and the “Plant response rating, Goosegrass” value (goosegrass; [22]) was 40. For the same compound, the “Plant response rating, Goosegrass” value (goosegrass; [17]) was 40, the “Goosegrass plant response rating” value (goosegrass; [18]) was 100 and the “Plant response rating, Goosegrass” value (goosegrass; [20]) was 30. The “Plant response rating (0 = no effect, 100 = complete control), Kochia” value (kochia; 62 g ai/ha, preemergence) was 90, the “Plant response rating, Kochia” value (kochia; [21]) was 90 and the “Kochia plant response rating” value (kochia; [16]) was 90. For the same compound, the “Plant response rating, Kochia” value (kochia; [22]) was 90, the “Plant response rating, Kochia” value (kochia; [17]) was 90 and the “Kochia plant response rating” value (kochia; [18]) was 100. For the same compound, the “Plant response rating, Kochia” value (kochia; [20]) was 80, the “Plant response rating (0 = no effect, 100 = complete control), Lambsquarters” value (lambsquarters; 62 g ai/ha, preemergence) was 90 and the “Plant response rating, Lambsquarters” value (lambsquarters; [21]) was 100. The “Plant response rating, Lambsquarters” value (lambsquarters; [15]) was 100, the “Lambsquarters plant response rating” value (lambsquarters; [16]) was 100 and the “Plant response rating, Lambsquarters” value (lambsquarters; [17]) was 100. For the same compound, the “Lambsquarters plant response rating” value (lambsquarters; [18]) was 100, the “Plant response rating, Lambsquarters” value (lambsquarters; [19]) was 80 and the “Plant response rating, Lambsquarters” value (lambsquarters; [20]) was 40. The “Plant response rating (0 = no effect, 100 = complete control), Ragweed” value (common ragweed; 62 g ai/ha, preemergence) was 0, the “Plant response rating, Ragweed” value (common ragweed; [15]) was 0 and the “Ragweed plant response rating” value (common ragweed; [16]) was 40. For the same compound, the “Plant response rating, Ragweed” value (common ragweed; [17]) was 40, the “Ragweed plant response rating” value (common ragweed; [18]) was 40 and the “Plant response rating, Ragweed” value (common ragweed; [19]) was 30. The “Plant response rating, Ragweed” value (common ragweed; [20]) was 20, the “Sedge, Umbrella plant response rating” value [1, 23] was 50 and the “Sedge, Umbrella plant response rating” value [1, 24] was 80. The “Plant response rating, Sedge, Umbrella” value ([1]; 250 g ai/ha, scale 0 to 100 (0 no effect, 100 complete control)) was 80 and the “Plant response rating, Sedge, Umbrella” value [1, 11] was 90.
In the case of `C=CCn1nc(C(C)(C)C)cc1C(=O)Nc1cccc(C(=O)NCC)c1` [Compound 56], the “Plant response rating, Foxtail, Giant” value (giant foxtail; [12]) is reported as 20, the “Foxtail, Giant plant response rating” value (giant foxtail; [13]) is reported as 100 and the “Foxtail, Giant plant response rating” value (giant foxtail; [4]) is reported as 20. The “Plant response rating, Foxtail, Giant” value (giant foxtail; [14]) was 60, the “Plant response rating, Pigweed” value (pigweed; [12]) was 90 and the “Pigweed plant response rating” value (pigweed; [13]) was 100. The “Pigweed plant response rating” value (pigweed; [4]) was 60, the “Plant response rating, Pigweed” value (pigweed; [14]) was 30 and the “Plant response rating (0 = no effect, 100 = complete control), Surinam Grass” value (Surinam grass; 62 g ai/ha, preemergence) was 10. The “Plant response rating, Surinam Grass” value (Surinam grass; [9]) was 15, the “Plant response rating, Surinam Grass” value (Surinam grass; [15]) was 60 and the “Surinam Grass plant response rating” value (Surinam grass; [18]) was 75. For the same compound, the “Plant response rating (0 = no effect, 100 = complete control), Crabgrass, Large” value (large crabgrass; 62 g ai/ha, preemergence) was 95, the “Plant response rating, Crabgrass, Large” value (large crabgrass; [9]) was 100 and the “Plant response rating, Crabgrass, Large” value (large crabgrass; [15]) was 100. The “Crabgrass, Large plant response rating” value (large crabgrass; [18]) was 100, the “Plant response rating (0 = no effect, 100 = complete control), Goosegrass” value (goosegrass; 62 g ai/ha, preemergence) was 60 and the “Plant response rating, Goosegrass” value (goosegrass; [9]) was 85. For the same compound, the “Plant response rating, Goosegrass” value (goosegrass; [15]) was 90, the “Goosegrass plant response rating” value (goosegrass; [18]) was 95 and the “Plant response rating (0 = no effect, 100 = complete control), Kochia” value (kochia; 62 g ai/ha, preemergence) was 75. For the same compound, the “Plant response rating, Kochia” value (kochia; [9]) was 90, the “Plant response rating, Kochia” value (kochia; [15]) was 95 and the “Kochia plant response rating” value (kochia; [18]) was 95. For the same compound, the “Plant response rating (0 = no effect, 100 = complete control), Lambsquarters” value (lambsquarters; 62 g ai/ha, preemergence) was 85, the “Plant response rating, Lambsquarters” value (lambsquarters; [9]) was 100 and the “Plant response rating, Lambsquarters” value (lambsquarters; [15]) was 100. The “Lambsquarters plant response rating” value (lambsquarters; [18]) was 100, the “Plant response rating (0 = no effect, 100 = complete control), Ragweed” value (common ragweed; 62 g ai/ha, preemergence) was 60 and the “Plant response rating, Ragweed” value (common ragweed; [9]) was 95. The “Plant response rating, Ragweed” value (common ragweed; [15]) was 95, the “Ragweed plant response rating” value (common ragweed; [18]) was 95 and the “Sedge, Umbrella plant response rating” value [1, 23] was 45. The “Sedge, Umbrella plant response rating” value [1, 24] was 85, the “Sedge, Umbrella plant response rating” value [1, 10] was 90 and the “Plant response rating, Sedge, Umbrella” value [1, 11] was 90.
